According to patent publication US20260183305A1, “METHYLENE BLUE FOR USE IN THERAPY OF HEPATITIS B AND/OR HEPATITIS D INFECTION” (priority 2022, published 2026):
Entries after “also recorded” stand apart in the source; their conditions may differ.

Experiments:
SARS-COV-2 = conditions: in vitro, hermetically closed box; cited from earlier work
[1] = transplacental exposure, mouse; cited from earlier work
[2] = after oral administration; cited from earlier work
Influenza N1H1 virus = conditions: in vitro, hermetically closed box; cited from earlier work
HepNB2.7 cells = test: MTT cell viability assay, cytotoxicity of MB on HepNB2.7; type: cell-based; conditions: HepNB2.7, MTT
[3] = system: HBV surface antigen (HBsAg); test: HBsAg measurement by ELISA in supernatant of HDV infected HepNB2.7 cells; type: cell-based, Hepatitis B Virus
Protocol: (§1) HepG2-NTCP and HepNB2.7 cells (plated at 10×10^3 cells/well) were infected with 10 or 50 MOI of HDV using PEG (polyethylene glycol) 4% overnight as previously described (Alfaiate D, Lucifora J et al.; cf. above). MB (2.5 or 1.25 μg/ml) was added 16 hrs post HDV infection for 5 h and cells were incubated at room temperature in the dark. Three and six days post infection, RNA was extracted and HDV RNA level was monitored by RT-qPCR in order to determine HDV replication as described below. For HepNB2.7, the level of HBsAg in the supernatant were measured as described below.
For HepNB2.7, the level of HBsAg in the supernatant were measured at both time points by ELISA (Enzyme-Linked Immosorbent Assay, ABBOTT PRISM® HBsAg) according to the protocol of the manufacturer.
(§2) HepG2-NTCP or HepNB2.7 cells were infected with different titers of HDV (10, 50, 100 MOI) and treated with 2.5 or 1.25 μg/ml of MB for 5 hours. Cells were analyzed at day 3 or day 6 post-infection and HDV replication was assessed by RT-PCR. For HepNB2.7, the level of HBsAg in the supernatant were measured at both time points.
In a second experiment the secretion of the HBV surface antigen (HBsAg) was measured in the supernatant of cells infected with 10, 50 or 100 MOI and treated with MB (2.5 or 1.25 μg/ml).

HDV [4] = test: MB HDV inhibition assay (HDV RNA by RT-qPCR) on HepG2-NTCP cells; type: cell-based, Hepatitis D Virus; conditions: MB 2.5 or 1.25 μg/mL; for HDV RNA concentration: HepG2-NTCP
Protocol: (§3) HepG2-NTCP or HepNB2.7 cells were infected with different titers of HDV (10, 50 MOI) and treated with 2.5 or 1.25 μg/ml of MB for 5 hours.
as §1
(§4) Total intracellular RNA was extracted using the Nucleospin RNA Kit (Macherey-Nagel AG). cDNA was synthesized from 100 ng total RNA using Superscript II and random hexamer primers (Roche Diagnosis). Quantification of HDV was performed by qRT-PCR as described (Alfaiate D, Lucifora J et al), using the primers described by Scholtes & colleagues (Scholtes C, Icard V, Amiri M et al; “Standardized one-step real-time reverse transcription-PCR assay for universal detection and quantification of hepatitis delta virus from clinical samples in the presence of a heterologous internal-control RNA.” J Clin Microbiol 2012;50:2126-2128.) and EEF1A1 as housekeeping gene.
as §2
The inhibitory effect of MB on HDV replication on HepG2-NTCP cells was investigated. Cells infected with either 10 or 50 MOI of virus were treated with MB (2.5 or 1.25 μg/ml) and HDV replication was assessed at 3 days (A) or 6 days (B) post infection.

[5] = Brazilian children, long periods of time; cited from earlier work
[6] = 5 mg/ml solution for injection; cited from earlier work
HDV [7] = test: MB HDV inhibition assay (HDV RNA by RT-qPCR) on HepNB2.7 cells; type: cell-based, Hepatitis D Virus
Protocol: as §3, §1, §4, §2
The inhibitory effect of MB on HDV replication on HepNB2.7 cells was investigated. In a first experiment cells infected with either 10 or 50 MOI were treated with MB (2.5 or 1.25 μg/ml) and HDV replication was assessed at 3 days, or 6 days, post infection.

SMILES: CN(C)c1ccc2nc3ccc(N(C)C)cc3[s+]c2c1.[Cl-] [MB, [7-(dimethylamino)phenothiazin-3-ylidene]-dimethylazanium, chloride]
- antiviral efficacy in the total dark (SARS-COV-2): strong antiviral efficacy
- teratogenicity [1]: teratogenic
- bioavailability [2]: 72%
- elimination half-life [2]: 18 h
- antiviral efficacy in the total dark (Influenza N1H1 virus): strong antiviral efficacy
- long-term cytotoxic effect (percentage of viability) (HepNB2.7 cells; 3 days after incubation with different concentrations of MB): significant toxicity
- cytotoxic effect of MB in the presence of light as compared to dark (HepNB2.7 cells; dark vs photoactivated under visible light, 3 days after incubation): not significantly enhanced
- secretion of the HBV surface antigen (HBsAg) in the supernatant ([3]; HepNB2.7 infected with 10, 50 or 100 MOI HDV, MB 2.5 or 1.25 μg/ml, all conditions tested): diminished secretion; also recorded: clear-cut dose/response relationship
- antiviral effect of MB over time ([3]; results on day 3 and 6): accumulates over time
- HDV RNA concentration (HDV [4]; 10 MOI): too low to distinguish the antiviral impact of MB
- HDV RNA concentration (HDV [4]; 50 MOI, 3 and 6 days post infection): clear dose response relationship
- antiviral effect of MB against HDV infected HepG2-NTCP cells (HDV [4]; physiological drug concentrations): significant antiviral effect
- dose tolerated very well [5]: 20-50 mg/kg per day
- compatibility with 0.9% saline solution [6]: not compatible
- compatibility with 5% glucose or 5% dextrose solution [6]: compatible
- HDV replication signal (HDV [7]; HepNB2.7, 10 MOI, day 3 and 6): weak signal
- effect of MB on viral reproduction (HDV replication) (HDV [7]; HepNB2.7, 50 MOI, day 6 post infection, MB 2.5 or 1.25 μg/ml): dose related effect
- viral markers under long-term treatment (extrapolated) (HDV [7]; long-term treatment (weeks instead of days), cell lines, no data shown): complete disappearance of viral markers
